The target of one experiment is IGF-1R kinase (Homo sapiens, UniProt P08069). In words: IGF-1R kinase inhibition. It is filed as biochemical. The note with it: IGF-1R kinase inhibitor potency, approx.
The test system of a further experiment is H292 cells. In words: Cell-Titer Glo cell growth inhibition. The format is cell-based, human. The settings on record: NSCLC cell line H292. Here is the method: (§1) The NSCLC lines with IGF-1R, H292, H358, H322, H441, A549, Calu6, H460, H1703 and SW1573 were cultured in the appropriate ATCC recommended supplemented media. Cell extracts were prepared by detergent lysis ((50 mM Tris-HCl, pH8, 150 mM NaCl, 1% NP-40, 0.5% NaDeoxycholate, 0.1% SDS) containing protease and phosphatase inhibitors. The soluble protein concentration was determined by micro-BSA assay (Pierce, Rockford Ill.).
(§2) IGF-1R inhibitor Compound 66 (i.e. 3-(3-Azetidin-1-ylmethyl-cyclobutyl)-1-(2-phenyl-quinolin-7-yl)-imidazo[1,5-a]pyrazin-8-ylamine; see structure below) stock concentration was 10 mM in 100% DMSO (dimethyl sulfoxide). Serial dilutions (1:3 or 1:4) were used to establish the 50% inhibitory dose of IGF-1R inhibitor. Before dosing, inhibitor was diluted in 100% DMSO, and then added to the cells at desired final concentrations in duplicates. The final DMSO concentration was between 0.3-0.5%. Compound 66 was synthesized by the methods described in published International patent application number WO 2005/097800 A1.
(§3) For measuring cell viability, Cell-Titer Glo assay was used, which is available as a kit from Promega. The basis of the assay is a luminescent quantitation of ATP present in a cell culture plate well. In essence, the greater the number of viable cells in the well, the greater the level of ATP present. The assay utilizes a substrate that binds ATP to produce a luminescent signal, which can be read on a luminometer. Unless otherwise noted, the manufacturer's instructions were followed exactly. Briefly, on Day 1, cells were plated in 120 μl of 10% serum-containing growth media at a density of 4000 cells/well in a white polystyrene 96 well assay plate. On day 2, cells were treated with 15 μl of 10× concentration of the IGF-1R inhibitor (e.g. Compound 66, PQIP) or DMSO alone for a final well volume of 150 μl. After 72 h incubation with the inhibitor, the cells were assayed. Results were calculated as a fraction of the DMSO controlled cells.

For the next experiment, the system named is H441 cells. Put plainly: Cell-Titer Glo cell growth inhibition. It is filed as cell-based, human. The settings on record: NSCLC cell line H441. Here is the method:
as §1, §2, §3

The test system of the next experiment is A549 cells. In words: Cell-Titer Glo cell growth inhibition. The format is cell-based, human. The note with it: NSCLC cell line A549. As to the method: as §1, §2, §3
Another experiment relates to SW1573 cells. Put plainly: Cell-Titer Glo cell growth inhibition. It is filed as cell-based, human. As to the method:
as §1, §2, §3

The next experiment relates to H358 cells. In words: Cell-Titer Glo cell growth inhibition. It is filed as cell-based, human. The note with it: NSCLC cell line H358. As to the method: as §1, §2, §3
A further experiment relates to H460 cells. Put plainly: Cell-Titer Glo cell growth inhibition. It is filed as cell-based, human. Here is the method:
as §1
IGF-1R inhibitor Compound 66 (i.e. 3-(3-Azetidin-1-ylmethyl-cyclobutyl)-1-(2-phenyl-quinolin-7-yl)-imidazo[1,5-a]pyrazin-8-ylamine; see structure below) stock concentration was 10 mM in 100% DMSO (dimethyl sulfoxide). Serial dilutions (1:3 or 1:4) were used to establish the 50% inhibitory dose of IGF-1R inhibitor. Before dosing, inhibitor was diluted in 100% DMSO, and then added to the cells at desired final concentrations in duplicates. The final DMSO concentration was between 0.3-0.5%. […]
(§4) For measuring cell viability, Cell-Titer Glo assay was used, which is available as a kit from Promega. The basis of the assay is a luminescent quantitation of ATP present in a cell culture plate well. […] The assay utilizes a substrate that binds ATP to produce a luminescent signal, which can be read on a luminometer. […] Results were calculated as a fraction of the DMSO controlled cells.

The test system of the next experiment is BxPC3 cells. Put plainly: Cell-Titer Glo cell growth inhibition. The format is cell-based, human. The note with it: BxPC3, growth inhibition by an IGF-1R kinase inhibitor.
Excerpt: (§5) The cell lines HCT-116, HT-29, GEO, Colo205, SW480, SW620, BxPC3, HPAC, CFPAC-1, MiaPaca-2, Panc1, A1165, MDA-MB-231, MDA-MB-435, DU4475, and MDA-MB468 were routinely cultured in media as prescribed by the ATCC containing 10% FCS. With the exception of GEO tumor cells (obtained from Roswell Park Cancer Institute (RPCI)), and A1165 (obtained from FCRF (NCI-Frederick Cancer Research Facility)) all tumor cells were obtained from the ATCC.
(§6) IGF-1R inhibitor Compound PQIP: Synthesis of PQIP: cis-3-[3-(4-Methyl-piperazin-1-yl)-cyclobutyl]1-(2-phenyl-quinolin-7-yl)-imidazo[1,5-a]pyrazin-8-ylamine (PQIP; see structure below), is a 1,3-disubstituted-8-amino-imidazopyrazine derivative synthesized by the methods described in patent application number WO 2005/097800 A1. Compound identity and purity (>99%) was verified by ^1H and ^13C nuclear magnetic resonance, mass spectrometry (MS), and high-performance liquid chromatography using Bruker Advance 400, WatersMicromass ZQ, and Waters LC Module I Plus instruments, respectively, as well as by elemental analysis. PQIP was dissolved in DMSO at 10 mmol/L for use in biochemical or cellular assays done in vitro. For in vivo studies, PQIP was dissolved in 25 mmol/L tartaric acid at an appropriate concentration to deliver the desired dose at 20 mL/kg by oral gavage.
as §3

A further experiment has as its system HT-29 cells. Put plainly: Cell-Titer Glo cell growth inhibition. The format is cell-based, human. The note with it: HT-29, growth inhibition by an IGF-1R kinase inhibitor.
Excerpt: as §5, §6, §3

A further experiment concerns Colo205 cells. In words: Cell-Titer Glo cell growth inhibition. It is filed as cell-based, human. The settings on record: Colo205, growth inhibition by an IGF-1R kinase inhibitor.
Excerpt: as §5, §6, §3

A further experiment has as its system Panc1 cells. In words: Cell-Titer Glo cell growth inhibition. The format is cell-based, human. The settings on record: Panc1, growth inhibition by an IGF-1R kinase inhibitor.
Excerpt: as §5, §6, §3

Another experiment concerns HPAC cells. In words: Cell-Titer Glo cell growth inhibition. It is filed as cell-based, human. The note with it: growth inhibition by an IGF-1R kinase inhibitor.
Excerpt: as §5, §6, §3

Another experiment has as its system GEO cells. Put plainly: Cell-Titer Glo cell growth inhibition. The format is cell-based, human. The note with it: growth inhibition by an IGF-1R kinase inhibitor.
Excerpt: as §5, §6, §3

A further experiment concerns CFPAC cells. In words: Cell-Titer Glo cell growth inhibition. The format is cell-based, human. The note with it: growth inhibition by an IGF-1R kinase inhibitor.
Excerpt: as §5, §6, §3

Another experiment deals with MiaPaca-2 cells. Put plainly: Cell-Titer Glo cell growth inhibition. The format is cell-based, human. The settings on record: MiaPaca-2, growth inhibition by an IGF-1R kinase inhibitor.
Excerpt: as §5, §6, §3

The test system of the next experiment is HCT-116 cells. Put plainly: Cell-Titer Glo cell growth inhibition. The note with it: Homo sapiens, 3 μM PQIP, activating mutation in PI3K. The format is cell-based.
Excerpt: as §5
IGF-1R inhibitor Compound PQIP: Synthesis of PQIP: cis-3-[3-(4-Methyl-piperazin-1-yl)-cyclobutyl]1-(2-phenyl-quinolin-7-yl)-imidazo[1,5-a]pyrazin-8-ylamine (PQIP; see structure below), is a 1,3-disubstituted-8-amino-imidazopyrazine derivative synthesized by the methods described in patent application number WO 2005/097800 A1. […]
as §4

A further experiment relates to MCF-7 cells. Put plainly: Cell-Titer Glo cell growth inhibition. The format is cell-based. The note with it: Homo sapiens, MCF7, 3 μM PQIP, activating mutation in PI3K. Here is the method: as §3, with “The” for “For measuring cell viability, Cell-Titer Glo assay was used, which is available as a kit from Promega. The”, “On day 2, cells were treated with 15 μl of 10× concentration of the IGF-1R inhibitor (e.g. Compound 66, PQIP) or DMSO alone for a final well volume of 150 μl.” left out

The subject of the next experiment is RKO cells. In words: Cell-Titer Glo cell growth inhibition. The format is cell-based, human. As to the method:
as §3, with “IGF-1R inhibitor Compound PQIP: […] PQIP was dissolved in DMSO at 10 mmol/L for use in biochemical or cellular assays done in vitro. For in vivo studies, PQIP was dissolved in 25 mmol/L tartaric acid at an appropriate concentration to deliver the desired dose at 20 mL/kg by oral gavage. For” for “For”

A further experiment has as its system DLD-1 cells. Put plainly: Cell-Titer Glo cell growth inhibition. It is filed as cell-based, human. As to the method:
as §3, with “IGF-1R inhibitor Compound PQIP: […] PQIP was dissolved in DMSO at 10 mmol/L for use in biochemical or cellular assays done in vitro. For in vivo studies, PQIP was dissolved in 25 mmol/L tartaric acid at an appropriate concentration to deliver the desired dose at 20 mL/kg by oral gavage. For” for “For”

In experiment [1] the test system is panel comprised of 28 tumor cell lines. Put plainly: Cell-Titer Glo cell growth inhibition, tumor cell line panel. The format is cell-based, human. The note with it: for inhibition at 3 µM: Homo sapiens, 3 μM PQIP, 28 tumor cell lines. Here is the method: as §1, §5
as §6, with “For in vivo studies, PQIP was dissolved in 25 mmol/L tartaric acid at an appropriate concentration to deliver the desired dose at 20 mL/kg by oral gavage.” left out
as §4

Molecules are shown by their SMILES. Read-outs that look alike come from different tables or passages of the source.

Sequence of IGF-1R kinase (P08069 31-1367): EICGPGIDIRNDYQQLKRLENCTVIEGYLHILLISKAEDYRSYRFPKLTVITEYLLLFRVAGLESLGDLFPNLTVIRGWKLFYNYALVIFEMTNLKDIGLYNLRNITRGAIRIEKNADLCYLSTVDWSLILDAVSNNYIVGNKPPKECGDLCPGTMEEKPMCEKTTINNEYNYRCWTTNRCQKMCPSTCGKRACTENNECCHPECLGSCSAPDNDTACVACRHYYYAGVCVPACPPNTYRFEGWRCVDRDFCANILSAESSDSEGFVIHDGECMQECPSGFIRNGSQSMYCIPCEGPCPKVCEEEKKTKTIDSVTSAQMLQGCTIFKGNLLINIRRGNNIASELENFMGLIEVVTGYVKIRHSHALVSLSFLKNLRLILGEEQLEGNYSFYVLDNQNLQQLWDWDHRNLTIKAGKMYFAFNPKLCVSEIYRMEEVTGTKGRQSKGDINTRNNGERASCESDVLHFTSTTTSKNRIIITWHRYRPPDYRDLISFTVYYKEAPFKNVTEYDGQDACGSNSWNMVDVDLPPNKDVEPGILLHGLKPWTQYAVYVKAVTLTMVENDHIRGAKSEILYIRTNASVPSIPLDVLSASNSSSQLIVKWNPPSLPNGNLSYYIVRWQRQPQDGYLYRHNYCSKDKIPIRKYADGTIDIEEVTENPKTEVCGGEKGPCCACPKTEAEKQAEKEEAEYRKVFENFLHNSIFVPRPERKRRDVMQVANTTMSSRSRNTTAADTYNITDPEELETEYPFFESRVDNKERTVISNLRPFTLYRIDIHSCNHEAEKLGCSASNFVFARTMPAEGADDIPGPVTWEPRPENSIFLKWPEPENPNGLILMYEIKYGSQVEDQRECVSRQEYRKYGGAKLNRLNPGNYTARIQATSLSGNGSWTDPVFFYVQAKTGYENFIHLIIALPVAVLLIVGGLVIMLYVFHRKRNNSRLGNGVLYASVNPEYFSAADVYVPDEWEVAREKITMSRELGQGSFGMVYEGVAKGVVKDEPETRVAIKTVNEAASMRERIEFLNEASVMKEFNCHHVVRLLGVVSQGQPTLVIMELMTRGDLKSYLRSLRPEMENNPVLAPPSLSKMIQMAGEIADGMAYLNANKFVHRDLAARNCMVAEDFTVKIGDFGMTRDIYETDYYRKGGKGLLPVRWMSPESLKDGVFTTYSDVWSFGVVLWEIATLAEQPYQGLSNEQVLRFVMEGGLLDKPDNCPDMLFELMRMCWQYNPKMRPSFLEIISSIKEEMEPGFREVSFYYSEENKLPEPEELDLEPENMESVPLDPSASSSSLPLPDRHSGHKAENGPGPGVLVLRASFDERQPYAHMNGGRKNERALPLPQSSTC

With `Nc1nccn2c1c(-c1ccc3ccc(-c4ccccc4)nc3c1)nc2[C@H]1C[C@@H](CN2CCC2)C1` [Compound 66, 3-(3-Azetidin-1-ylmethyl-cyclobutyl)-1-(2-phenyl-quinolin-7-yl)-imidazo[1,5-a]pyrazin-8-ylamine], on IGF-1R kinase, the IC50 is roughly 50 nM. Further, the “sensitivity to Compound 66-mediated growth inhibition” value in the experiment with H292 cells is “sensitive”; with H441 cells, “sensitive”; in the experiment with A549 cells, “intermediate sensitivity”; in the experiment on SW1573 cells (NSCLC cell line SW1573) it was “relatively insensitive”; in the experiment on H358 cells, “sensitive”; with H460 cells (NSCLC cell line H460) it was “relatively insensitive”. Also, in the experiment on SW1573 cells (Homo sapiens, SW1573 cells, 10 μM inhibitor, read-out: growth inhibition in vitro), the inhibition at 10 µM is less than 10%.
As for `CN1CCN([C@H]2C[C@@H](c3nc(-c4ccc5ccc(-c6ccccc6)nc5c4)c4c(N)nccn43)C2)CC1` [PQIP, cis-3-[3-(4-Methyl-piperazin-1-yl)-cyclobutyl]1-(2-phenyl-quinolin-7-yl)-imidazo[1,5-a]pyrazin-8-ylamine], the “sensitivity to IGF-1R inhibition” value is on record as “relatively sensitive” with BxPC3 cells; “relatively sensitive” in the experiment on HT-29 cells; “relatively sensitive” in the experiment on Colo205 cells; “relatively insensitive” with Panc1 cells; “relatively sensitive” with HPAC cells; “relatively sensitive” in the experiment on GEO cells. Moreover, the “sensitivity to IGF-1R inhibition” value is on record as “relatively sensitive” with CFPAC cells; “relatively insensitive” with MiaPaca-2 cells; “relatively insensitive” with RKO cells (RKO, growth inhibition by an IGF-1R kinase inhibitor); “relatively sensitive” in the experiment with DLD-1 cells (DLD1, growth inhibition by an IGF-1R kinase inhibitor). Further, the inhibition at 3 µM in the experiment on HCT-116 cells is greater than 70%; in the experiment with MCF-7 cells, greater than 70%; with RKO cells (Homo sapiens, RKO cells, 3 μM PQIP, activating mutation in PI3K), less than 20%; with DLD-1 cells (Homo sapiens, DLD-1 cells, 3 μM PQIP, activating mutation in PI3K), less than 20%; in experiment [1] (read-out: median growth inhibition for the panel) it was 37%; in experiment [1] (72 hours after dosing, read-out: % maximal growth inhibition, range of sensitivities over the panel) it was 2 to 72%. In the experiment on H460 cells (Homo sapiens, NCI-H460 cells, 3 μM PQIP, activating mutation in PI3K), the inhibition at 3 µM was less than 20%. Besides, the “effects of varying concentrations on cell proliferation” value in [1] (all cell lines, data not shown) is listed as “dose-dependent”.

In general, IC50 refers to the concentration that inhibits the measured activity by half. Usually inhibition stands for how much of the control response was suppressed.
